Our source for the Ki, Ratio Ki and Selectivity ratio values is ChEMBL document CHEMBL2146442, “High-affinity and selective dopamine D₃ receptor full agonists” (Bioorg Med Chem Lett, 2012).

pKi: −log10 of the molar value.

Test [1] in a line: Displacement of [3H]SCH23390 from dopamine D1 like receptor in rat brain homogenates. Format: tissue-based.
The species entered for test [2] is Rattus norvegicus. Put plainly: Selectivity ratio of Ki for dopamine D1 like receptor in rat brain homogenates to Ki for dopamine D3 receptor in rat brain homogenates. Format: tissue-based.
The nature of test [3]: Displacement of [3H]Spiperone from dopamine D2 like receptor in rat brain homogenates. The class given is tissue-based.
Test [4] has as its target D(3) dopamine receptor (Rattus norvegicus, UniProt P19020). Put plainly: Displacement of [3H]-R(+)-7-OHDPAT from dopamine D3 receptor in rat brain homogenates. Format: tissue-based.
Test [5] is described as follows: Selectivity ratio of dopamine D2 receptor to dopamine D3 receptor.
The nature of test [6]: Selectivity ratio of dopamine D1 like receptor to dopamine D3 receptor.

Sequence of D(3) dopamine receptor (P19020 whole entry): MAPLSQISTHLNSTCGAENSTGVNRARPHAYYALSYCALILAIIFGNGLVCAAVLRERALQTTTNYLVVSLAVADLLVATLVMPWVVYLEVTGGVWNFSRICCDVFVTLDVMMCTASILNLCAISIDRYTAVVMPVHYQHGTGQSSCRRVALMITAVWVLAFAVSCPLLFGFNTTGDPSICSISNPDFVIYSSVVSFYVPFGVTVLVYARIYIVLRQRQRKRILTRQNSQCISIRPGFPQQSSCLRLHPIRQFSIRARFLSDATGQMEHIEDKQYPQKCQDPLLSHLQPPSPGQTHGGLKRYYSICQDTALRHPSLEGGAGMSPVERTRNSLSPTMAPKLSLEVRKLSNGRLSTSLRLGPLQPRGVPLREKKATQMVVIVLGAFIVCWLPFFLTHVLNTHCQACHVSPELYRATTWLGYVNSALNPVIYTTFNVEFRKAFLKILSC

Compound `CCCN[C@H]1CCc2nc(N)sc2C1` [PRAMIPEXOLE] had a pKi in test [1] of less than 4.00.
In the case of `CCCN(CC[C@H]1CC[C@H](NC(=O)c2ccc(-n3cccn3)cc2)CC1)[C@H]1CCc2nc(N)sc2C1`, the pKi was 4.84 in test [1], 7.28 in test [3] and 8.52 in test [4]. For the same compound, in test [2], the Ratio Ki is 4870.
For `CCCN(CC[C@H]1CC[C@H](NC(=O)c2ccc(-c3noc(C)n3)cc2)CC1)[C@H]1CCc2nc(N)sc2C1`, in that order: 4.46, 6.35, 8.89 and 27000.
Consider `CCCN(CC[C@H]1CC[C@H](NC(=O)/C=C/c2cccc(F)c2)CC1)[C@H]1CCc2nc(N)sc2C1`, for which the values for the pKi in test [1], in test [3] and in test [4] were 5.18, 7.10 and 8.00, respectively. For the same compound, in test [2], the Ratio Ki turned out to be 666.
For `CCCN(CC[C@H]1CC[C@H](NS(=O)(=O)c2cccc(C)c2)CC1)[C@H]1CCc2nc(N)sc2C1`, in that order: 5.08, 7.21, 9.05 and 9470.
The corresponding values for `CCCN(CC[C@H]1CC[C@H](NS(=O)(=O)c2ccc(C(C)(C)C)cc2)CC1)[C@H]1CCc2nc(N)sc2C1` are 5.50, 7.00, 8.30 and 626.
For `CCCN(CC[C@H]1CC[C@H](NC(=O)c2ccc(-n3cncn3)cc2)CC1)[C@H]1CCc2nc(N)sc2C1`, in that order: 4.85, 7.25, 8.62 and 5960.
As to `COc1ccccc1N1CCN(CC(O)CCNC(=O)c2cc3ccccc3[nH]2)CC1` (centres undefined), the figures for the Selectivity ratio in test [5] and in test [6] were 100 and more than 1000, respectively.
Take `CCCN(CC[C@H]1CC[C@H](NS(=O)(=O)c2cnccc2Cl)CC1)[C@H]1CCc2nc(N)sc2C1`: the pKi in test [1] was 4.97; in test [4], 9.03.
Turning to `CCCN(CC[C@H]1CC[C@H](NC(=O)c2cccc3ncccc23)CC1)[C@H]1CCc2nc(N)sc2C1`, the figures for the pKi in test [1], in test [3] and in test [4] were 4.36, 7.14 and 8.80, respectively. For the same compound, the Ratio Ki in test [2] stood at 27100.
With `CCCN(CC[C@H]1CC[C@H](NC(=O)/C=C/c2ccccc2OC)CC1)[C@H]1CCc2nc(N)sc2C1`, the pKi in test [1] was 5.10; in test [3], 6.99; in test [4] it was 8.09. Besides, the Ratio Ki in test [2] was 983.
For `CCCN(CC[C@H]1CC[C@H](NC(=O)/C=C/c2cccc(OC)c2)CC1)[C@H]1CCc2nc(N)sc2C1`, in that order: 5.05, 6.91, 8.03 and 953.
`O=C(NC/C=C/CN1CCN(c2cccc(Cl)c2Cl)CC1)c1ccc(-c2ccccn2)cc1`: the Selectivity ratio is 100 in test [5] and more than 1000 in test [6].
Turning to `CCCN(CC[C@H]1CC[C@H](NS(=O)(=O)c2cccc3ccccc23)CC1)[C@H]1CCc2nc(N)sc2C1`, the pKi in test [1] is 5.33; in test [3] it was 7.51; in test [4] it was 8.82. Also, the Ratio Ki in test [2] worked out at 3160.
The corresponding values for `CCCN(CC[C@H]1CC[C@H](NC(=O)c2cccc(-n3ccnc3)c2)CC1)[C@H]1CCc2nc(N)sc2C1` are 4.61, 7.49, 8.96 and 21800.
For `CCCN(CC[C@H]1CC[C@H](NC(=O)/C=C/c2ccc(F)cc2)CC1)[C@H]1CCc2nc(N)sc2C1`, in that order: 5.33, 7.18, 9.00 and 4670.
The corresponding values for `CCCN(CC[C@H]1CC[C@H](NS(=O)(=O)c2ccc(Cl)cc2)CC1)[C@H]1CCc2nc(N)sc2C1` are 5.08, 7.15, 9.02 and 8750.
As to `CCCN(CC[C@H]1CC[C@H](NC(=O)c2ccc(-c3noc(C(C)C)n3)cc2)CC1)[C@H]1CCc2nc(N)sc2C1`, the pKi in test [1] was 4.96; in test [3] it was 6.33; in test [4], 8.70. Besides, the Ratio Ki in test [2] amounted to 5370.
The corresponding values for `CCCN(CC[C@H]1CC[C@H](NC(=O)/C=C/c2ccc(OC)cc2)CC1)[C@H]1CCc2nc(N)sc2C1` are 5.10, 7.03, 8.17 and 1200.
For `CCCN(CC[C@H]1CC[C@H](NC(=O)/C=C/c2ccc(Cl)cc2)CC1)[C@H]1CCc2nc(N)sc2C1`, in that order: 5.39, 7.57, 8.60 and 1600.
Consider `O=C(NCCCCN1CCN(c2cccc(Cl)c2Cl)CC1)c1ccc2c(c1)Cc1ccccc1-2`, for which the Selectivity ratio in test [5] was 100; in test [6] it was more than 1000.
On to `CCCN(CC[C@H]1CC[C@H](NC(=O)c2cccc(-n3cncn3)c2)CC1)[C@H]1CCc2nc(N)sc2C1`, for which the pKi was 4.22 in test [1], 7.37 in test [3] and 8.52 in test [4]. Moreover, the Ratio Ki in test [2] was determined as 19900.
As to `CCCN(CC[C@H]1CC[C@H](NC(=O)/C=C/c2ccccc2F)CC1)[C@H]1CCc2nc(N)sc2C1`, the values for the pKi in test [1], in test [3] and in test [4] were 5.00, 7.04 and 8.54, respectively. Also, the Ratio Ki in test [2] came out at 3510.
The corresponding values for `CCCN(CC[C@H]1CC[C@H](NS(=O)(=O)c2ccc(C(C)C)cc2)CC1)[C@H]1CCc2nc(N)sc2C1` are 5.09, 6.88, 8.35 and 1810.
As to `CCCN(CC[C@H]1CC[C@H](NS(=O)(=O)c2ccccc2Cl)CC1)[C@H]1CCc2nc(N)sc2C1`, the pKi in test [1] was 5.02; in test [4], 9.17.
With `CCCN(CC[C@H]1CC[C@H](NC(=O)c2ccc(-n3ccnc3)cc2)CC1)[C@H]1CCc2nc(N)sc2C1`, the values for the pKi in test [1], in test [3] and in test [4] were 4.43, 7.64 and 8.72, respectively. In test [2], the Ratio Ki is 19900.
For `CCCN(CC[C@H]1CC[C@H](NC(=O)/C=C/c2ccccc2Cl)CC1)[C@H]1CCc2nc(N)sc2C1`, in that order: 5.26, 7.52, 8.92 and 4650.
For `CCCN(CC[C@H]1CC[C@H](NC(=O)c2ccc(-c3noc(C4CC4)n3)cc2)CC1)[C@H]1CCc2nc(N)sc2C1`, in that order: 4.94, 6.20, 8.46 and 3240.
With `CCCN(CC[C@H]1CC[C@H](NC(=O)c2ccc3ccccc3n2)CC1)[C@H]1CCc2nc(N)sc2C1`, the pKi in test [1] is 4.95; in test [3], 7.06; in test [4], 8.80. The Ratio Ki in test [2] was 6050.
On to `CCCN(CC[C@H]1CC[C@H](NC(=O)c2cccc3cnccc23)CC1)[C@H]1CCc2nc(N)sc2C1`, for which the pKi was 4.58 in test [1], 7.19 in test [3] and 8.23 in test [4]. For the same compound, in test [2], the Ratio Ki turned out to be 4500.
For `CCCN(CC[C@H]1CC[C@H](NS(=O)(=O)c2ccccc2)CC1)[C@H]1CCc2nc(N)sc2C1`, in that order: 4.63, 7.24, 9.10 and 29700.
For `CCCN(CC[C@H]1CC[C@H](NC(=O)/C=C/c2cccc(Cl)c2)CC1)[C@H]1CCc2nc(N)sc2C1`, in that order: 5.24, 7.28, 8.92 and 4640.
`O=C(NCC[C@@H](O)CN1CCN(c2cccc(Cl)c2Cl)CC1)c1cc2ccccc2[nH]1`: the Selectivity ratio in test [5] is 100; in test [6], more than 1000.
In the case of `CCCN(CC[C@H]1CC[C@H](NS(=O)(=O)c2ccc(OC)cc2)CC1)[C@H]1CCc2nc(N)sc2C1`, the pKi in test [1] is 4.67; in test [3], 7.42; in test [4], 9.11. Besides, in test [2], the Ratio Ki amounted to 27500.
The corresponding values for `CCCN(CC[C@H]1CC[C@H](NS(=O)(=O)c2ccc(Cl)nc2)CC1)[C@H]1CCc2nc(N)sc2C1` are 5.09, 7.55, 9.20 and 12900.
The corresponding values for `CCCN(CC[C@H]1CC[C@H](NC(=O)c2ccccc2-n2cccn2)CC1)[C@H]1CCc2nc(N)sc2C1` are 4.33, 7.35, 8.70 and 23800.
Consider `CCCN(CC[C@H]1CC[C@H](NS(=O)(=O)c2ccc(-c3ccccc3)cc2)CC1)[C@H]1CCc2nc(N)sc2C1`, for which the pKi is 5.74 in test [1], 7.12 in test [3] and 7.39 in test [4]. Moreover, the Ratio Ki in test [2] was 44.
For the compound `CCCN(CC[C@H]1CC[C@H](NS(=O)(=O)c2cccc(F)c2)CC1)[C@H]1CCc2nc(N)sc2C1`, the pKi is 4.98 in test [1] and 9.14 in test [4].
With `CCCN(CC[C@H]1CC[C@H](NC(=O)c2ccc(-c3noc(CC)n3)cc2)CC1)[C@H]1CCc2nc(N)sc2C1`, the pKi was 4.75 in test [1], 6.48 in test [3] and 8.68 in test [4]. Also, the Ratio Ki in test [2] stood at 8380.
Take `CCCN(CC[C@H]1CC[C@H](NS(=O)(=O)c2cccc(Cl)c2)CC1)[C@H]1CCc2nc(N)sc2C1`: the results for the pKi in test [1] and in test [4] were 5.26 and 8.96, respectively.
Regarding `CCCN(CC[C@H]1CC[C@H](NC(=O)c2cccc(-c3noc(CC)n3)c2)CC1)[C@H]1CCc2nc(N)sc2C1`, the figures for the pKi in test [1], in test [3] and in test [4] were 5.30, 6.31 and 8.82, respectively. The Ratio Ki in test [2] was 3450.
For `CCCN(CC[C@H]1CC[C@H](NS(=O)(=O)c2ccc3ccccc3c2)CC1)[C@H]1CCc2nc(N)sc2C1`, in that order: 5.43, 7.85, 8.82 and 2430.
